Laboratory results reported in patent publication EP3436024B1, “3-BETA-METHOXY-PREG FOR USE IN THE TREATMENT OF TREATMENT RESISTANT DEPRESSION” (Mapreg, priority 2016, dated 2017).

These compounds were tested on microtubule-associated protein2 (MAP2) (assay: Binding (affinity) by displacement of PREG-3H). Details: index of binding.

| SMILES | Affinity |
| --- | --- |
| CO[C@H]1CC[C@@]2(C)[C@@H](CC[C@@H]3[C@@H]2CC[C@]2(C)[C@@H](C(C)=O)CC[C@@H]32)C1 (stereo in doubt) [3β-methoxy-5a-pregnane-20-one] | 87% of PREG |
| CO[C@H]1CC[C@@]2(C)C(=CCC3C2CC[C@@]2(C)C3CC[C@@]2(C(C)=O)C(Cl)Cl)C1 (stereo partly drawn) [3β-methoxy-pregna-5-ene-20-one-17a-dichloromethyl] | 53% of PREG |
| CC(=O)[C@H]1[C@H](C)C[C@H]2[C@@H]3CC[C@H]4C[C@@H](O)CC[C@]4(C)[C@H]3CC[C@@]21C [3β-hydroxy-5a-pregnane-20-one-16a-methyl] | 57% of PREG |
| CC(=O)[C@@]12C[C@@H]1C[C@H]1[C@@H]3CC=C4C[C@@H](O)CC[C@]4(C)[C@H]3CC[C@@]12C [PREG-16a,17a-methylene] | 62% of PREG |
| CC(=O)[C@H]1[C@H](C)C[C@H]2[C@@H]3CC=C4C[C@@H](O)CC[C@]4(C)[C@H]3CC[C@@]21C [PREG-16a-methyl] | 80% of PREG |
| CO[C@H]1CC[C@@]2(C)C(=CC[C@H]3C4=CC[C@H](C(C)=O)[C@@]4(C)CC[C@@H]32)C1 [3β-methoxy-pregna-5,14-diene-20-one] | 102% of PREG |
| CC(=O)[C@H]1[C@@H](C)C[C@H]2[C@@H]3CC=C4C[C@@H](O)CC[C@]4(C)[C@H]3CC[C@@]21C [PREG-168-methyl] | 63% of PREG |

What follows are compounds tested against purified tubulin and MAP2 (Homo sapiens, UniProt P11137) (assay: Microtubule polymerization activity (optical density at 345 nm)). Details: increase in optical density at 345 nm, 37 °C, in the presence of GTP.
Sequence of purified tubulin and MAP2 (P11137 whole entry): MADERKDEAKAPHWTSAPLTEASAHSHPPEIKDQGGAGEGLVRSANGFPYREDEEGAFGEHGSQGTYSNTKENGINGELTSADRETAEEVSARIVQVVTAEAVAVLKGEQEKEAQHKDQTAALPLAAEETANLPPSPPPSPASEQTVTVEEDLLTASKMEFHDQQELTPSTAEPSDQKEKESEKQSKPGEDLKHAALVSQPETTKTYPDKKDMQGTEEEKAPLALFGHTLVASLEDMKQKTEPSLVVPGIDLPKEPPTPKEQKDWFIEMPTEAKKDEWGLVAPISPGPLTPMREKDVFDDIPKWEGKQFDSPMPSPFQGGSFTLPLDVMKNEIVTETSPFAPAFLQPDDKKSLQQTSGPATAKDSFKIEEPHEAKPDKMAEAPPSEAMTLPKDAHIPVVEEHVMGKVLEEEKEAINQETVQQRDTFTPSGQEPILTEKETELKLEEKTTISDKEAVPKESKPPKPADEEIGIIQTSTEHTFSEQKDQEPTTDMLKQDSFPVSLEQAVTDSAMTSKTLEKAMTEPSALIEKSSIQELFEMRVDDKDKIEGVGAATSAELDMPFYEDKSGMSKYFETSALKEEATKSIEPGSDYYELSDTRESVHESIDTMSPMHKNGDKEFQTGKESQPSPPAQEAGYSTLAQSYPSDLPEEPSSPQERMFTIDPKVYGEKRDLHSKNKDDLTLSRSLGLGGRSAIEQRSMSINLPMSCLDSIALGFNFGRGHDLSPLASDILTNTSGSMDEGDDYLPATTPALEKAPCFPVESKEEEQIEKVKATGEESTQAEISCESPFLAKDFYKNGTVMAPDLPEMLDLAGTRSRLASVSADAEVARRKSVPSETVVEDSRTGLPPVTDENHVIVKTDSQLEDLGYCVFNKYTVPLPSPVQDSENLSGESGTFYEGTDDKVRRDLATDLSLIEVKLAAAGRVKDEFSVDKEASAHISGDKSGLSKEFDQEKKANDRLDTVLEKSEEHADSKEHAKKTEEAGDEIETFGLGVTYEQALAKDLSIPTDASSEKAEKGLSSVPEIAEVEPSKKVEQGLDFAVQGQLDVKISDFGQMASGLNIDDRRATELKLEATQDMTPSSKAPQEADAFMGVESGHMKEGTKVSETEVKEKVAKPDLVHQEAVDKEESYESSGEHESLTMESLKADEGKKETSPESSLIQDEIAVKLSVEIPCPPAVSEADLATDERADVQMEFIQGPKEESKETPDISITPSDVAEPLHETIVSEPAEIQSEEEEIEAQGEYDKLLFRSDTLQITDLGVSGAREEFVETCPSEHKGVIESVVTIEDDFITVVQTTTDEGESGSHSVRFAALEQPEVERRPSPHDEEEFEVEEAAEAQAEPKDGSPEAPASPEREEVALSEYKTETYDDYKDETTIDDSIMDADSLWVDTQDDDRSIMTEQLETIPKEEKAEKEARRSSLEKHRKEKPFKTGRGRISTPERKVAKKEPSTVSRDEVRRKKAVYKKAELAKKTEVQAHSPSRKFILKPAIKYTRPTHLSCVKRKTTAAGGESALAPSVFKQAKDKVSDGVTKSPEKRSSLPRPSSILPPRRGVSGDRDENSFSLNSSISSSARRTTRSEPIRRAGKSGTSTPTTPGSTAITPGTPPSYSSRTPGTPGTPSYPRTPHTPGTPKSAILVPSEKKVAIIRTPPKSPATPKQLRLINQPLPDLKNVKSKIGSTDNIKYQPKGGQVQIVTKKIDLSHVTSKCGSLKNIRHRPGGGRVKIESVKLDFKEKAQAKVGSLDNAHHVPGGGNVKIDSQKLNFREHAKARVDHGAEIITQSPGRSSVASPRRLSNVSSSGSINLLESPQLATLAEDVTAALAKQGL
Assay type: biochemical
Method: Activity is measured by the increase in optical density at 345 nm of a mixture of purified tubulin and MAP2, incubated at 37 °C in the presence of GTP.

| SMILES | Activity |
| --- | --- |
| CO[C@H]1CC[C@@]2(C)[C@@H](CC[C@@H]3[C@@H]2CC[C@]2(C)[C@@H](C(C)=O)CC[C@@H]32)C1 (stereo in doubt) [3β-methoxy-5a-pregnane-20-one] | 10% of PREG |
| CO[C@H]1CC[C@@]2(C)C(=CCC3C2CC[C@@]2(C)C3CC[C@@]2(C(C)=O)C(Cl)Cl)C1 (stereo partly drawn) [3β-methoxy-pregna-5-ene-20-one-17a-dichloromethyl] | 113% of PREG |
| CC(=O)[C@H]1[C@H](C)C[C@H]2[C@@H]3CC[C@H]4C[C@@H](O)CC[C@]4(C)[C@H]3CC[C@@]21C [3β-hydroxy-5a-pregnane-20-one-16a-methyl] | 53% of PREG |
| CC(=O)[C@@]12C[C@@H]1C[C@H]1[C@@H]3CC=C4C[C@@H](O)CC[C@]4(C)[C@H]3CC[C@@]12C [PREG-16a,17a-methylene] | 49% of PREG |
| CC(=O)[C@H]1[C@H](C)C[C@H]2[C@@H]3CC=C4C[C@@H](O)CC[C@]4(C)[C@H]3CC[C@@]21C [PREG-16a-methyl] | 70% of PREG |
| CO[C@H]1CC[C@@]2(C)C(=CC[C@H]3C4=CC[C@H](C(C)=O)[C@@]4(C)CC[C@@H]32)C1 [3β-methoxy-pregna-5,14-diene-20-one] | 50% of PREG |
| CC(=O)[C@H]1[C@@H](C)C[C@H]2[C@@H]3CC=C4C[C@@H](O)CC[C@]4(C)[C@H]3CC[C@@]21C [PREG-168-methyl] | 67% of PREG |

What follows are compounds tested on PC12 cells (assay: Stimulation of neuritic sprouting). Details: PC12 cells differentiated with NGF (10 ng/ml), steroid 30 µM, 3 days; relative to PREG.
Assay type: cell-based
Method: Stimulation of neuritic sprouting is conducted on PC12 cells differentiated in the presence of NGF (10 ng/ml) and the steroid being tested (30 µM) for 3 days. For each condition, the average length of the longest 200 neurites […] is measured simultaneously for 3 cultures.

| SMILES | Neuritic sprouting |
| --- | --- |
| CO[C@H]1CC[C@@]2(C)[C@@H](CC[C@@H]3[C@@H]2CC[C@]2(C)[C@@H](C(C)=O)CC[C@@H]32)C1 (stereo in doubt) [3β-methoxy-5a-pregnane-20-one] | +++ |
| CO[C@H]1CC[C@@]2(C)C(=CCC3C2CC[C@@]2(C)C3CC[C@@]2(C(C)=O)C(Cl)Cl)C1 (stereo partly drawn) [3β-methoxy-pregna-5-ene-20-one-17a-dichloromethyl] | +++ |
| CC(=O)[C@@]12C[C@@H]1C[C@H]1[C@@H]3CC=C4C[C@@H](O)CC[C@]4(C)[C@H]3CC[C@@]12C [PREG-16a,17a-methylene] | + (stimulation is lower than) |
| CC(=O)[C@H]1[C@H](C)C[C@H]2[C@@H]3CC=C4C[C@@H](O)CC[C@]4(C)[C@H]3CC[C@@]21C [PREG-16a-methyl] | ++ (equal to) |
| CO[C@H]1CC[C@@]2(C)C(=CC[C@H]3C4=CC[C@H](C(C)=O)[C@@]4(C)CC[C@@H]32)C1 [3β-methoxy-pregna-5,14-diene-20-one] | + (stimulation is lower than) |
